The source of these data is patent US9163003B2, “4-piperidinyl compounds for use as tankyrase inhibitors” (NOVARTIS AG, priority 2011, dated 2015).

As a reminder, the IC50 is the concentration that gives 50% inhibition. In general, AC50 refers to the concentration at which the activity in the assay is half-maximal.

The target of test [1] is tankyrase 2 protein PARP domain, TNKS2P (GST-tagged) (Homo sapiens (Human), UniProt Q9H2K2). The test can be described thus: TNKS2 autoparsylation (AP) biochemical assay, LC/MS detection of nicotinamide. The note with it: 20 nM enzyme, 250 μM NAD+, 60 min room temperature.
In test [2] the target is human tankyrase 1 PARP catalytic domain, TNKS1P (GST-tagged) (Homo sapiens (Human), UniProt O95271). The test can be described thus: TNKS1 autoparsylation (AP) biochemical assay, LC/MS detection of nicotinamide. The note with it: 20 nM enzyme, 250 μM NAD+, 60 min room temperature. How it is done: The human tankyrase 1 PARP catalytic domain, TNKS1P, was cloned into a pDONR221 vector using the Invitrogen Gateway Technology. This entry clone was then subcloned into the destination vector pDEST20 to obtain the N-terminal Glutathione S-transferase (GST)-tagged fusion protein.
The autoparsylation activity of the TNKS 1/2 or PARP1/2 enzymes was measured by the liquid chromatography-mass spectrometry (LC/MS) detection of nicotinamide as readout. Compound activity in inhibiting the TNKS and PARP autoparsylation was evaluated by IC50 measurements.

The subject of test [3] is Wnt ligand-induced signaling. The test can be described thus: Wnt-responsive Super-TOpFlash (STF) luciferase reporter gene assay in HEK293 cells. Type of test: cell-based. The note with it: Homo sapiens, Wnt3A condition medium induced. How it is done:
Compound activity in inhibiting Wnt ligand-induced signaling was measured using a Wnt-responsive Super-TOpFlash (STF) luciferase reporter gene assay in HEK293 cells. On day 1 of the assay, cells were plated at a density of 8000 cells per well of 384-well plate in 25 μl medium containing 5% fetal bovine serum (FBS). On the second day, […] condition medium (CM) produced from mouse L cells was added to the cells to induce Wnt signaling, followed by addition of 5 μL of compounds each well in 10-point serial dilution. On the third day, the luciferase activity was measured by the Bright-Glo™ Luciferase Assay System following manufacture's protocol (Promega, E2620). The Inhibition was calculated as: (Maximum Wnt-induced signaling−Sample)/(Maximum Wnt-induced signaling−Background)*100. “Maximum Wnt-induced signaling” is the STF signal level induced by 20% Wnt3A CM without compound; and “Background” is the STF signal level without the addition of Wnt3A CM or compound.
Background: In a reporter assay the amount or activity of a reporter protein is the signal.

In a further test the test system is Axin2 protein. The test can be described thus: Cellular ELISA assay for stabilizing the Axin2 protein in SW480 cells. Type of test: cell-based. The note with it: Homo sapiens, 24 hrs treatment, read-out: Axin AC50. As to the method: Compound activity in stabilizing the Axin2 protein was measured by Sandwich Enzyme-Linked Immuosorbent (ELISA) assay in the colorectal cell line SW480. 30,000 SW480 cells were seeded per well in 96-well plate and incubated overnight prior to compound treatment. Cells were then treated with compounds in 6-point dilution starting at 10 μM for 24 hrs. Cells were then washed with 100 μL of cold Phosphate Buffer Saline (PBS), and lysed in 125 μl of cold 1× lysis buffer (Cell Signaling Technology, 9803) supplemented with Protease inhibitor (Roche, 11836170) and Phosphatase inhibitors (Sigma, P2850, P5726). For the ELISA assay, anti Axin-2 capture antibody (Strategic Diagnostics) antibody was diluted to a concentration of 1 μg/ml (1:1000) in Carbonate Coating buffer, pH 9.2 (Sigma, C3041-50CAP). 100μ of the diluted anti Axin-2 capture antibody per well was then used to coat the 96-well ELISA plate (Thermo Electron Corp., MicroLite 1 flat bottom plate #7571) overnight at 4° C. Plates were then washed three times with 300 μl/well of wash solution, PBST20 (PBS+0.05% Tween), and blocked with 300 μl/well 1% BSA/PBS (BSA, Millipore Probumin #82-045-1) for 1.5 hours at room temperature while shaking gently. After blocking, plates were then washed three times with 300 μl/well of wash solution. 100 μL of prepared SW480 cell lysate was then added to each well and incubated at room temperature for 2 hours while shaking gently. After washing, 100 μL of Biotinylated anti-Axin2 antibody (CST, 2151) was added to each well and incubated room temperature for 2 hours. 100 μL of Streptavidin-HRP (R&D systems, DY998) diluted 1:200 in 1% BSA/PBS was then added in each well and incubate for 30 mins at R/T in the dark. Signal was detected by Chemiluminescence (Pierce SuperSignal ELISA Femto #3704), and measured on PerkinElmer Wallac 1420 plate reader.
In general terms: ELISA stands for enzyme-linked immunosorbent assay.

The test system of test [4] is Non-small lung cancer ABC-1 cells. As to the kind of experiment: Cellular proliferation assay, ABC-1 cells (CellTiter-Glo). In kind it is cell-based. The note with it: Homo sapiens, 72 h, 3 days of compound treatment. How it is done:
Non-small lung cancer ABC-1 cells were plated at 5000 cells per well in 96-well plates and treated with 8 serial compound dilutions starting from 10 μM as the highest concentration. Viable cells were measured after 3 days of compound treatment using the CellTiter-Glo assay (Promega, G7570). Assay was performed following the manufacture protocol.
A general note: In ATP-based viability assays light output follows the ATP content of the culture.

In another test the target is Human PARP1 (Homo sapiens (Human), UniProt P09874). The test can be described thus: PARP1 autoparsylation biochemical assay, LC/MS detection of nicotinamide. To be noted: read-out: PARP1 IC50, 20 nM enzyme, 250 μM NAD+, 60 min room temperature.
A further test deals with PARP2 (Mus musculus (Mouse), UniProt O88554). As to the kind of experiment: PARP2 autoparsylation biochemical assay, LC/MS detection of nicotinamide. To be noted: read-out: PARP2 Ic50, 20 nM enzyme, 250 μM NAD+, 60 min room temperature.
The test system of test [5] is Herpes Simplex Virus (HSV). The note with it: cited from earlier work.

Sequence of tankyrase 2 protein PARP domain, TNKS2P (GST-tagged) (Q9H2K2 959-1164): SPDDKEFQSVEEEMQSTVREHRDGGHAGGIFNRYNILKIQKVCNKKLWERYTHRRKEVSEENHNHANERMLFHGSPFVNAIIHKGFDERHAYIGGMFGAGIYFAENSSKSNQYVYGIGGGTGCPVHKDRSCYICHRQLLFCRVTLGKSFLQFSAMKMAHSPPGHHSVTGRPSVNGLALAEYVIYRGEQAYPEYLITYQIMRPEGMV
Sequence of PARP2 (O88554 whole entry): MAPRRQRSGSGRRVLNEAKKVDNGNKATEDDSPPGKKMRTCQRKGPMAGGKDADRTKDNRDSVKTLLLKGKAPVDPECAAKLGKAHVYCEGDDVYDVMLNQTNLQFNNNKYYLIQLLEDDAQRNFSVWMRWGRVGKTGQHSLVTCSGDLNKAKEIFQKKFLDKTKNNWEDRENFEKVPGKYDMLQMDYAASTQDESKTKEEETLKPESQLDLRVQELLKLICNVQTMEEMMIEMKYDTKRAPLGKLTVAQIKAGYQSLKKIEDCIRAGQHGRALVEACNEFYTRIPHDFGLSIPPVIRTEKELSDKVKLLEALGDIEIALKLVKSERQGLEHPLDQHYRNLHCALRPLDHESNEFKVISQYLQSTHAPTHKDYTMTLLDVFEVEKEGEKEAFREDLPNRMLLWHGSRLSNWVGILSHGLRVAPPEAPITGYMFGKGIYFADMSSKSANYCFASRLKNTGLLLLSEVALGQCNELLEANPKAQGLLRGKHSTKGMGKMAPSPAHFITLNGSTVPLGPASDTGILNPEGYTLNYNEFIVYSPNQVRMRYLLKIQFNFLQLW
Sequence of Human PARP1 (P09874 whole entry): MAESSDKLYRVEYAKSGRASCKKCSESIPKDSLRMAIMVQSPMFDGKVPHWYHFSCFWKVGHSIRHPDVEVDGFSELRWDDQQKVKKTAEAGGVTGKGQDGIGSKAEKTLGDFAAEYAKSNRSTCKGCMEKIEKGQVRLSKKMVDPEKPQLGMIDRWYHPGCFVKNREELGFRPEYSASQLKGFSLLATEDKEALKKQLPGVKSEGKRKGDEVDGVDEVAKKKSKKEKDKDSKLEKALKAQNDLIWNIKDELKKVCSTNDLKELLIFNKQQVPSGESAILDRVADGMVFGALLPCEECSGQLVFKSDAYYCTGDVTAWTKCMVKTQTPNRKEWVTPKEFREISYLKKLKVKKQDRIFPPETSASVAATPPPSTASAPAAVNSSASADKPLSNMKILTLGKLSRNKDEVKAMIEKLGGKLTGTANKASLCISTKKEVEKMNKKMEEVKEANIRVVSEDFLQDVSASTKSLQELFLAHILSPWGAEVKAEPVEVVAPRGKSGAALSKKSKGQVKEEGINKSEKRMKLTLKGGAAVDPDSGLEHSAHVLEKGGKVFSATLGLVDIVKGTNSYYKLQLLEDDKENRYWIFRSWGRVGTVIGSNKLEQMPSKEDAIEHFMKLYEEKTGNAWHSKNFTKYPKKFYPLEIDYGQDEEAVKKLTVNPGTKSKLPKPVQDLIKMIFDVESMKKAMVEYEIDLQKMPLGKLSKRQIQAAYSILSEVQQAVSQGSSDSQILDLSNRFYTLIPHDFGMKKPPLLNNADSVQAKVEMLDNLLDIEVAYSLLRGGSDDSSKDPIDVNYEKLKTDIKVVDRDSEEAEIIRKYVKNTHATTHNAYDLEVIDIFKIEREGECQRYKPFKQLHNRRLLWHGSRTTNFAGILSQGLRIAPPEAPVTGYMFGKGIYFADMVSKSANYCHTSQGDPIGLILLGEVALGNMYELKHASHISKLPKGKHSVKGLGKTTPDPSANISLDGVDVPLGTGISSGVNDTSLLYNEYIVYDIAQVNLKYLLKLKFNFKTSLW
Sequence of human tankyrase 1 PARP catalytic domain, TNKS1P (GST-tagged) (O95271 1112-1317): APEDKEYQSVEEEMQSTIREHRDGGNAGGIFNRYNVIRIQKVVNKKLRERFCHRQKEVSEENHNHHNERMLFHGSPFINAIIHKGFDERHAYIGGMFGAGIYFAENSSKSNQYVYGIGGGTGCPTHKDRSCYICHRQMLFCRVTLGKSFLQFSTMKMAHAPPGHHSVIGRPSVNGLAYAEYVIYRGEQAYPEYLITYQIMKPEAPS

On to `COc1ccc(C(=O)C2CCN(C3CCN(Cc4nc5c(c(=O)[nH]4)CCC5)C3=O)CC2)cc1` (stereo not shown) [Example 21, 2-((3-(4-(4-methoxybenzoyl)piperidin-1-yl)-2-oxopyrrolidin-1-yl)methyl)-6,7-dihydro-3H-cyclopenta[d]pyrimidin-4(5H)-one], for which the 50% inhibitory concentration (IC50) in test [1] was 17 ± 2 nM; in test [2], 34 ± 1 nM; in test [3] it was 1.1 ± 0.17 nM; in test [4] it was 18 nM; at Human PARP1, 29600 ± 2800 nM; at PARP2, 10700 ± 200 nM. Moreover, in the test on Axin2 protein, the AC50 turned out to be 7 ± 2 nM.
Consider `CCc1cc(=O)[nH]c(CN2CCC(N3CCC(C(=O)c4ccc(OC)cc4)CC3)C2=O)n1` (stereo not shown) [Example 24, 6-Ethyl-2-{3-[4-(4-methoxy-benzoyl)-piperidin-1-yl]-2-oxo-pyrrolidin-1-ylmethyl}-3H-pyrimidin-4-one], for which the IC50 in test [1] is 53 ± 5 nM; in test [2], 115 ± 4 nM; in test [3], 10.4 ± 2.3 nM; in test [4], 183 nM; at Human PARP1, more than 19000 nM; on PARP2, more than 19000 nM. In the test with Axin2 protein, the half-maximal activity concentration (AC50) amounted to 104 ± 15 nM.
On to `COc1ccc(C(=O)C2CCN(C3CCN(Cc4ncc(C)c(=O)[nH]4)C3=O)CC2)cc1` (stereo not shown) [Example 25, 2-{3-[4-(4-Methoxy-benzoyl)-piperidin-1-yl]-2-oxo-pyrrolidin-1-ylmethyl}-5-methyl-3H-pyrimidin-4-one], for which the IC50 was 36 ± 6 nM in test [1]; 72 ± 2 nM in test [2]; 3.4 ± 1.5 nM in test [3]; 117 nM in test [4]; more than 19000 nM at Human PARP1; more than 19000 nM on PARP2. The half-maximal activity concentration (AC50) in the test with Axin2 protein is 46 ± 3 nM.
For the molecule `COc1ccc(C(=O)C2CCN(C3CCN(Cc4nc(C)c(C)c(=O)[nH]4)C3=O)CC2)cc1` (stereo not shown) [Example 26, 2-{3-[4-(4-Methoxy-benzoyl)-piperidin-1-yl]-2-oxo-pyrrolidin-1-ylmethyl}-5,6-dimethyl-3H-pyrimidin-4-one], the IC50 was 26 ± 1 nM in test [1]; 47 ± 2 nM in test [2]; 4.1 ± 2.1 nM in test [3]; 43 nM in test [4]; more than 19000 nM on Human PARP1; more than 19000 nM at PARP2. The AC50 in the test on Axin2 protein was 21 ± 3 nM.
As to `COc1ccc(C(=O)C2CCN([C@H]3CCN(Cc4nc5ccccc(=O)c5[nH]4)C3=O)CC2)cc1C` [Example 28, 2-{(S)-3-[4-(4-Methoxy-3-methyl-benzoyl)-piperidin-1-yl]-2-oxo-pyrrolidin-1-ylmethyl}-3H-cycloheptaimidazol-4-one], the concentration for half-maximal inhibition (IC50) in test [1] is 7 ± 1 nM; in test [2] it was 19.5 ± 3.5 nM; in test [3], 1.5 ± 0.5 nM; in test [4], 0.8 ± 0.9 nM; at Human PARP1 it was 20200 ± 1500 nM; on PARP2, 2900 ± 300 nM. Moreover, the AC50 in the test with Axin2 protein was found to be 0.46 ± 0.2 nM.
Turning to `Oc1nc(-c2ccc(C(F)(F)F)cc2)nc2c1CSCC2` [XAV939], in test [5], the HSV viral growth result is listed as “decreased viral growth” and the “HSV viral protein expression” value is reported as “suppressed HSV viral protein expression”.
